Common to all, as to assay type: cell-based, human
Assay [1] deals with HaCaT cells. Description: HaCaT cell spreading assay on oil interfaces (cell area from phalloidin staining). Particulars: HaCaT on BSA interfaces, Novec 7500+PFBC; blebbistatin 10 μM, Y27632 10 μM, Cytochalasin D 1 μM.
Protocol: Generation of fluorinated oil droplet substrates for cell culture. Thin glass slides (25×60 mm, VWR) were plasma oxidized for 10 minutes and placed into a staining jar. Toluene (1 mL, Sigma-Aldrich) and 30 μL trichloro (1H, 1H, 2H, 2H-perfluorooctyl) silane (Sigma-Aldrich) were added in a glass vial. The staining jar containing the glass slides and the glass vial with the silane solution were placed into a desiccator under vacuum for 5 min and then left under reduced atmosphere but sealed overnight. The fluorinated glass slides were cut into chips (1×1 cm) and placed into a 24 well plate. After sterilisation with 70% ethanol, the wells were washed (twice) and then filled with 2 mL PBS (pH 7.4, except when specified, for the adsorption of poly(L-lysine) at pH 10.5). 100 tL droplets of fluorinated oil (Novec 7500) with fluorinated surfactant (2,3,4,5,6-Pentafluorobenzoyl chloride) at specified concentrations (see specific experiments, but often 0.01 mg/mL) were deposited on top of the glass slide and formed a fluorinated oil droplet spreading over the entire substrate. […] For the deposition of BSA, a 10 μL BSA solution (100 mg/mL) was added into PBS, to make a final concentration of 1 mg/mL, and incubated for 1 h.
HaCaT keratinocyte cell line culture and seeding. Human keratinocyte HaCaT cells were cultured in DMEM (Thermofisher Scientific) containing 10% foetal bovine serum (FBS, Labtech), 1% L-Glutamine (200 mM) and 1% Penicillin-Streptomycin (5,000 U/mL). […] For cell spreading assays HaCaT cells were harvested and seeded onto fluorinated droplets at a density of 25,000 per well (13,000 per cm^2).
Immuno-fluorescence microscopy and data analysis. Fluorescence microscopy images were acquired with a Leica DMI4000B fluorescence microscopy (CTR4000 lamp; 63×1.25 NA, oil lens; 10×0.3 NA lens; 2.5×0.07 NA lens; DFC300FX camera). […] To determine adhesion cell areas, images were analyzed by thresholding and watershedding fluorescence images of the cytoskeleton (phalloidin stained). […]
The test system of assay [2] is MSCs. The experiment in a line: MSC culture on fluorinated oils conditioned with culture medium only. Particulars: after 7 days of culture; no protein nanosheets deposition, conditioning with cell culture medium. As for the experimental part:
(§1) Generation of liquid-liquid (FC-40) interfaces for cell culture. 24 well plates were plasma oxidized using a plasma coater (Diener, 100% intensity) for 10 minutes. 500 mL ethanol (VWR chemicals), 10 mL trimethylamine (Sigma-Aldrich) and 10 mL of the desired silane (triethoxy(octyl)silane (Sigma-Aldrich) to prepare interfaces with liquid PDMS, or trichloro (1H, 1H, 2H, 2H-perfluorooctyl) silane (Sigma-Aldrich) for the fluorinated oil) were added into each well. Ethanol was added in between wells to slow down evaporation and parafilm was used to seal the well plate lid. After incubating for 24 h, the wells were washed in a sterile environment with ethanol (twice) and ddH2O (three times). 500 μL FC-40 (Sigma) was added in the fluorophilic 24 well plate to form the bottom liquid layer, 2 mL of MSC growth medium was directly added on the FC-40 layer, 5K cells were seeded in each well.

The subject of assay [3] is HaCaT cells. Description: HaCaT cell proliferation on liquid substrates (Hoechst staining). Particulars: fluorinated oil supplemented with the surfactant. As for the experimental part:
as §1, with “liquid-liquid” for “liquid-liquid (FC-40)”, “[…]” for “mL”, “PDMS” for “PDMS,”, “cover.” for “lid.”, “500 μL FC-40 (Sigma) was added in the fluorophilic 24 well plate to form the bottom liquid layer, 2 mL of MSC growth medium was directly added on the FC-40 layer, 5K cells were seeded in each well.” left out
Hoechst staining and LIVE/DEAD cell viability assay. Cell proliferation was assessed via Hoechst staining. […] Viability of HaCaT cells on fluorinated oil interfaces was quantified by LIVE/DEAD viability/cytotoxicity assay using a kit supplied by Thermofisher Scientific. In brief, HaCaT cells were incubated in DMEM with 2 μM Calcein AM and 4 μM Ethidium homodimer for 30 min. stained cells were imaged using a Leica DM14000 fluorescence microscopy (see below). The percentage of viable cells was calculated by counting the number of green (live) cells and dividing by the total number of cells (including dead cells).
Immuno-fluorescence microscopy and data analysis. […]

The subject of assay [4] is primary keratinocytes. The experiment in a line: Keratinocyte cell sheet formation on flat fluorinated oil interfaces. Particulars: FAD medium containing ROCK inhibitor, 10 μM; PLL-functionalised fluorinated oil. The text has this:
Keratinocyte culture and seeding.
Immunofluorescence staining and antibodies.
Immuno-fluorescence microscopy and data analysis. Fluorescence microscopy images were acquired with a Leica DMI4000B fluorescence microscopy (CTR4000 lamp; 63×1.25 NA, oil lens; 10×0.3 NA lens; 2.5×0.07 NA lens; DFC300FX camera). Confocal microscopy images were acquired with a Leica TCS SP2 confocal and multiphoton microscope (X-Cite 120 LED lamp; 63×1.40-0.60 NA, oil lens; 10×0.3 NA lens; DFC420C CCD camera). To determine cell densities per mm^2, cell counting was carried out by thresholding and watershedding nuclei images in ImageJ. […] To determine adhesion cell areas, images were analyzed by thresholding and watershedding fluorescence images of the cytoskeleton (phalloidin stained). The area of cell clusters was removed when analysing results.

Here are results for 5 molecules from US20240200022A1, “METHODS AND SYSTEMS FOR THE CULTURE OF CELLS AT LIQUID-LIQUID INTERFACES” (QUEEN MARY UNIVERSITY OF LONDON, priority 2017, published 2024).

Take `C=C1[C@@H](C)[C@H]2[C@H](Cc3ccccc3)NC(=O)[C@]23[C@H](OC(C)=O)/C=C/[C@@](C)(O)C(=O)[C@@H](C)C/C=C/[C@H]3[C@@H]1O` [cytochalasin D, Cytochalasin D]: the “cell spreading on oil” value in assay [1] is “further decreased”. For the molecule `CCOC(F)(C(F)(F)C(F)(F)C(F)(F)F)C(F)(C(F)(F)F)C(F)(F)F` (stereo not drawn) [Novec 7500, hexane, 3-ethoxy-1,1,1,2,3,4,4,5,5,6,6,6-dodecafluoro-2-(trifluoromethyl)], the MSC proliferation result in assay [2] is recorded as “did not lead to any significant cell proliferation”.

As for `Cc1ccc2c(c1)C(=O)C1(O)CCN(c3ccccc3)C1=N2` (stereo not drawn) [Blebbistatin, blebbistatin], in assay [1], the “cell spreading on oil” value is “slight increase”. For the molecule `O=C(Cl)c1c(F)c(F)c(F)c(F)c1F` [pentafluorobenzoyl chloride, 2,3,4,5,6-pentafluorobenzoyl chloride], the “HaCaT cell proliferation at the surface of fluorinated oil” value in assay [3] was “proliferated”. Regarding `C[C@@H](N)[C@H]1CC[C@H](C(=O)Nc2ccncc2)CC1` [Y27632], the “cell spreading on oil” value in assay [1] was “further decreased”. For the same molecule, the “integrity of keratinocyte cell sheets on oil” value in assay [4] was “preserved their integrity”.
